Values of other authors, collected in US12390507B1, “Method to provide consistent product batches active components for alkaloids of kratom plants” (priority 2021, dated 2025).

Key:
α1-adrenergic receptor = conditions: α1 versus α2 adrenergic receptor antagonist
α2-adrenergic receptor = conditions: α2 versus α1

For Corynantheidine, the “greater affinity for the α1-adrenergic receptor (over α2-adrenergic receptor)” value (α1-adrenergic receptor) is listed as 10 ×.

In the case of `COC(=O)[C@H]1[C@H]2C[C@H]3c4[nH]c5ccccc5c4CCN3C[C@H]2CC[C@@H]1O` [rauwolscine], the “higher affinity for the α2-adrenergic receptor over the α1-adrenergic” value (α2-adrenergic receptor) is listed as 30 ×.

In the case of `COC(=O)[C@@H]1[C@H]2C[C@H]3c4[nH]c5ccccc5c4CCN3C[C@@H]2CC[C@@H]1O` [yohimbine], the “higher affinity for the α2-adrenergic receptor over the α1-adrenergic” value (α2-adrenergic receptor) is given as 30 ×.

In the case of `CC[C@@H]1CN2CCc3c([nH]c4cccc(O)c34)[C@@H]2C[C@@H]1/C(=C\OC)C(=O)OC` [9-Hydroxycorynantheidine], the “maximum inhibition of electrically stimulated guinea-pig ileum contraction” value (opioid receptors; compared with mitragynine) is listed as “weaker than that of mitragynine”, the “effect on electrically stimulated guinea-pig ileum contraction” value (opioid receptors; one study, quoted) is listed as “inhibited” and the “effect of naloxone on the inhibition of guinea-pig ileum contraction” value (opioid receptors; with naloxone) is listed as “antagonized by naloxone”.
